molecular target: Human eIF4E (aa 28-217) / biotin labeled 4G2 peptide (Homo sapiens (Human), UniProt P06730); test: Human eIF4E/4G2 binding assay (TR-FRET); settings: Human eIF4E/4G2 TR-FRET binding assay; head says IC50, legend says EC50
Method: Example 5. Compound Testing in Human eIF4E/4G2 Binding Assay
Human eIF4E (aa 28-217) with a C-terminal His-tag was expressed in E. coli in inclusion bodies. The protein was solubilized with 8 M urea and purified under denaturing conditions using nickel-charged HisTrap HP columns (GE Healthcare). The purified protein was then refolded by diluting in 20 mM Hepes pH 7.0, 0.5 M NaCl, 1 mM DTT, 1 mM EDTA, 0.5 M arginine plus 6 M urea, and then dialyzing overnight into the same buffer without the urea. The protein was further dialyzed into 20 mM Hepes, pH 6.5, 50 mM NaCl, 1 mM EDTA, 1 mM DTT, and concentrated using Hitrap SP sepharose FF columns (GE Healthcare). The concentrated protein was dialyzed into 20 mM Hepes, pH 7.0, 0.5M NaCl, 5 mM DTT and 10% glycerol, and stored at −80° C. until use.
Test compounds (3.43 mM stock in DMSO) were diluted 2-fold in series in DMSO (10 concentration points). Compound solutions (1.2 μl/well) were added into black 384-well polypropylene microplates (Matrix, Thermal Scientific). Twenty-two microliters per well of Assay Buffer (50 mM NaPi, pH 6.5, 50 mM KCl, 1 mM DTT and 0.5 mg/ml gamma globulin) and eight microliters per well of 82.5 nM purified eIF4E in Assay Buffer were added. The samples were incubated at room temperature (20-23° C.) for 4 hours. Biotin labeled 4G2 peptide (Ac-Lys-Gln-Tyr-Asp-Arg-Glu-Phe-Leu-Leu-Asp-Phe-Gln-Phe-Met-Pro-Lys(Aha-Bio)-NH2, 1.75 μM stock in DMSO) was diluted to 0.14 μM in Assay Buffer (without DTT) and 5 μl/well was added. The samples were incubated at room temperature for 20 min. Five microliters per well of 6.4 nM Eu-streptavidin (Eu-SA, Perkin Elmer) and 80 nM Allophycocyanin (APC)-anti His antibody (Columbia Biosciences) in Assay Buffer (without DTT) were then added and the samples were incubated at room temperature for 20 min.
Assay signals were monitored by reading excitation at 340 nm and emission fluorescence at 615 nm and 665 nm on an Envision reader (Perkin Elmer). Normalized TR-FRET (time-resolved fluorescence resonance energy transfer) assay signal (Rn) was calculated by the formula: Rn=[(A−Ba−C×D)/(D−Bd)]×(Dc−Bd) Where A is the fluorescence intensity of the sample at 665 nm, • D is the fluorescence intensity of the sample at 615 nm, • Ba and Bd are plate backgrounds at 665 nm and 615 nm, respectively, • Dc is the fluorescence intensity of 0.78 nM Eu-SA in the assay buffer at 615 nm The cross-talk factor (C) is determined by the following formula: C=(Ac−Ba)/(Dc−Bd) Where Ac is the fluorescence intensity of 0.78 nM Eu-SA in the assay buffer at 665 nm.
IC50 values were calculated using xLFit program (IDBS). Table 2 below lists EC50 of some compounds, wherein A represents EC50≤1 uM; B represents 1 uM<EC50≤10 uM; and C represents EC50>10 uM.

Chain of Human eIF4E (aa 28-217) / biotin labeled 4G2 peptide (P06730 28-217): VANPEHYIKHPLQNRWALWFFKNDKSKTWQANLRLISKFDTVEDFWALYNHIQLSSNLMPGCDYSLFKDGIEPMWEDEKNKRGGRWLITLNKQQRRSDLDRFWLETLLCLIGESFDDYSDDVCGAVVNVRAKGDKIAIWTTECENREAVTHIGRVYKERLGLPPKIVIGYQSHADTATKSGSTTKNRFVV

IC50 [nM] | SMILES
≤ 1000 | CC(C)Cc1sc(Nc2cc(-c3cccc(Cl)c3)sc2C(=O)O)nc1-c1ccc(Cl)c(Cl)c1 [I-272]
> 10000 | CC(C)c1sc(Nc2ncc(-c3ccccc3)cc2C(=N)N)nc1-c1ccc(Cl)c(Cl)c1 [I-285]
1000 to 10000 | CC(C)Cc1sc(N(CCC(=O)NCCNC(=N)N)Cc2ccccc2)nc1-c1ccc(Cl)c(Cl)c1 [I-197, 3-(benzyl(4-(3,4-dichlorophenyl)-5-isobutylthiazol-2-yl)amino)-N-(2-guanidinoethyl) propanamide]
≤ 1000 | CC(C)Cc1sc(N(Cc2ccccc2)CC(O)C(=O)O)nc1-c1ccc(Cl)c(Cl)c1 (stereo not drawn) [I-190, 3-(benzyl(4-(3,4-dichlorophenyl)-5-isobutylthiazol-2-yl)amino)-2-hydroxypropanoic acid]
≤ 1000 | COc1cccc(-c2cnc(Nc3nc(-c4ccc(Cl)c(Cl)c4)c(C(C)C)s3)c(C(=O)O)c2)c1 [I-267]
1000 to 10000 | CC(C)Cc1sc(NCC(Cc2cccc(O)c2)C(=O)O)nc1-c1ccc(Cl)c(Cl)c1 (stereo not drawn) [I-21]
1000 to 10000 | CC(C)Cc1sc(N2CCN(c3ccccc3)C(C(=O)O)C2)nc1-c1ccc(Cl)c(Cl)c1 (stereo not drawn) [I-170]
> 10000 | CC(C)Cc1sc(Nc2ccc(N3CCOCC3)c(C(=O)O)c2)nc1-c1ccc(Cl)c(Cl)c1 [I-211]
1000 to 10000 | O=C(O)C(CCc1ccccc1)CNc1nc(-c2ccc(Cl)c(Cl)c2)c(C2CC2)s1 (stereo not drawn) [I-15]
1000 to 10000 | CC(C)c1sc(NCC(Cc2cccc(O)c2)C(=O)O)nc1-c1ccc(Cl)c(Cl)c1 (stereo not drawn) [I-4]
≤ 1000 | CC(C)Cc1sc(N(CCC(=O)O)Cc2ccccc2)nc1-c1ccc(Cl)c(Cl)c1 [I-47, 3-(benzyl(4-(3,4-dichlorophenyl)-5-isobutylthiazol-2-yl)amino)propanoic acid]
≤ 1000 | CC(C)Cc1sc(N(CCC(=O)O)Cc2cccc(F)c2)nc1-c1ccc(Cl)c(Cl)c1 [I-51]
> 10000 | CS(=O)(=O)c1sc(NCC(Cc2ccccc2)C(=O)O)nc1-c1ccc(Cl)c(Cl)c1 (stereo not drawn) [I-181, 2-benzyl-3-(4-(3,4-dichlorophenyl)-5-(methylsulfonyl)thiazol-2-ylamino)propanoic acid]
≤ 1000 | CC(C)Cc1sc(N(CCC(=O)O)Cc2ccccc2Cl)nc1-c1ccc(Cl)c(Cl)c1 [I-108]
≤ 1000 | CC(C)c1sc(Nc2cc(-c3ccccc3)sc2C(=O)O)nc1-c1ccc(Cl)c(C(F)(F)F)c1 [I-279, 3-(4-(4-chloro-3-(trifluoromethyl)phenyl)-5-isopropylthiazol-2-ylamino)-5-phenylthiophene-2-carboxylic acid]
1000 to 10000 | CC(C)Cc1sc(Nc2ccc(O)c(C(=O)O)c2)nc1-c1ccc(Cl)c(Cl)c1 [I-207, 5-(4-(3,4-dichlorophenyl)-5-isobutylthiazol-2-ylamino)-2-hydroxybenzoic acid]
1000 to 10000 | CC(C)Cc1sc(N(CCC(=O)O)C(=O)c2ccccc2)nc1-c1ccc(Cl)c(Cl)c1 [I-144]
1000 to 10000 | O=C(O)CCN(Cc1ccccc1)c1nc(-c2ccc(Cl)c(Cl)c2)c(Cn2ccnc2)s1 [I-122]
1000 to 10000 | O=C(O)C(CNc1nc(-c2ccc(Cl)c(Cl)c2)c(CC(F)(F)F)s1)Cc1ccccc1 (stereo not drawn) [I-184, 2-benzyl-3-(4-(3,4-dichlorophenyl)-5-(2,2,2-trifluoroethyl)thiazol-2-ylamino)propanoic acid]
1000 to 10000 | CC(C)Cc1sc(N(CCCO)CCC(=O)O)nc1-c1ccc(Cl)c(Cl)c1 [I-70]
1000 to 10000 | O=C(O)C(CNc1nc(-c2ccc(Cl)c(Cl)c2)c(C2CC2)s1)Cc1cccc(O)c1 (stereo not drawn) [I-13]
1000 to 10000 | O=C(O)C(CNc1nc(-c2ccc(Cl)c(Cl)c2)c(C2CC2)s1)Cc1cccc2[nH]ccc12 (stereo not drawn) [I-16]
1000 to 10000 | CCOC(=O)NC1CN(c2nc(-c3ccc(Cl)c(Cl)c3)c(CC(C)C)s2)C1=O (stereo not drawn) [I-139, ethyl 1-(4-(3,4-dichlorophenyl)-5-isobutylthiazol-2-yl)-2-oxoazetidin-3-ylcarbamate]
1000 to 10000 | Cn1nnnc1-c1sc(Nc2ccsc2C(=O)O)nc1-c1ccc(Cl)c(Cl)c1 [I-269, 3-(4-(3,4-dichlorophenyl)-5-(1-methyl-1H-tetrazol-5-yl)thiazol-2-ylamino)thiophene-2-carboxylic acid]
1000 to 10000 | CC(C)c1sc(NCC(Cc2ccc3[nH]ccc3c2)C(=O)O)nc1-c1ccc(Cl)cc1 (stereo not drawn) [I-46]
> 10000 | COC(=O)c1ccc(Nc2nc(-c3ccc(Cl)c(Cl)c3)c(CC(C)C)s2)n1C [I-287]

IC50 [nM] | SMILES
1000 to 10000 | Cc1ccc(CC(CNc2nc(-c3ccc(Cl)c(Cl)c3)c(CC(C)C)s2)C(=O)O)c(C)n1 (stereo not drawn) [I-157]
1000 to 10000 | CC(C)Cc1sc(Nc2cc(C(=O)O)ccc2-c2ccccc2)nc1-c1ccc(Cl)c(Cl)c1 [I-255]
1000 to 10000 | COc1cccc(-c2nc(NCC(Cc3c[nH]c4ccccc34)C(=O)O)sc2C(C)C)c1 (stereo not drawn) [I-36]
≤ 1000 | CC(C)Cc1sc(N(CCC(=O)O)Cc2ccccc2)nc1-c1ccc(-c2ccsc2)cc1 [I-126, 3-(benzyl(5-isobutyl-4-(4-(thiophen-3-yl)phenyl)thiazol-2-yl)amino)propanoic acid]
≤ 1000 | CC(C)Cc1sc(Nc2cc(NC(=O)c3ccccc3)cc(C(=O)O)c2)nc1-c1ccc(Cl)c(Cl)c1 [I-217]
1000 to 10000 | CC(C)Cc1sc(NCC(Cc2ccncc2)C(=O)O)nc1-c1ccc(Cl)c(Cl)c1 (stereo not drawn) [I-152]
≤ 1000 | CC(C)c1sc(NCC(Cc2cccc3c2OCO3)C(=O)O)nc1-c1ccc(Cl)c(Cl)c1 (stereo not drawn) [I-2]
1000 to 10000 | CC(C)Cc1sc(N(CCC(=O)NCCCN)Cc2ccccc2)nc1-c1ccc(Cl)c(Cl)c1 [I-192]
1000 to 10000 | O=C(O)C(CNc1nc(-c2ccc(Cl)c(Cl)c2)c(CC2CC2)s1)Cc1ccccc1 (stereo not drawn) [I-179]
≤ 1000 | CSc1ccc(CC(CNc2nc(-c3ccc(Cl)c(Cl)c3)c(CC(C)C)s2)C(=O)O)cc1 (stereo not drawn) [I-174]
≤ 1000 | CC(C)Cc1sc(-c2ccc(C(=O)O)s2)nc1-c1ccc(Cl)c(Cl)c1 [I-229]
≤ 1000 | CC(C)Cc1sc(Nc2ncc(-c3cccs3)cc2C(=O)O)nc1-c1ccc(OCC(N)=O)c(Cl)c1 [I-329, 2-(4-(4-(2-amino-2-oxoethoxy)-3-chlorophenyl)-5-isobutylthiazol-2-ylamino)-5-(thiophen-2-yl)nicotinic acid]
≤ 1000 | CC(C)Cc1sc(-c2ccc(-c3cccnc3)c(C(=O)O)c2)nc1-c1ccc(Cl)c(Cl)c1 [I-226]
> 10000 | CC(C)Cc1sc(N(CCCCCCN)CCC(=O)O)nc1-c1ccc(Cl)c(Cl)c1 [I-148]
> 10000 | CC(C)Cc1sc(N(CCC(=O)O)Cc2ccccc2)nc1-c1ccc(S(C)(=O)=O)cc1 [I-128, 3-(benzyl(5-isobutyl-4-(4-(methylsulfonyl)phenyl)thiazol-2-yl)amino)propanoic acid]
1000 to 10000 | CC(C)Cc1sc(N(CCC(=O)O)Cc2ccc[nH]2)nc1-c1ccc(Cl)c(Cl)c1 [I-110]
1000 to 10000 | CC(C)c1sc(NCC(Cc2c[nH]c3ccccc23)C(=O)O)nc1-c1ccc(Cl)c(Cl)c1 (stereo not drawn) [I-9]
1000 to 10000 | COc1cccc(-c2nc(NCC(Cc3cccc4[nH]ccc34)C(=O)O)sc2C(C)C)c1 (stereo not drawn) [I-35]
1000 to 10000 | COc1ccc(-c2nc(N(CCC(=O)O)Cc3ccccc3)sc2CC(C)C)cc1Cl [I-80]
1000 to 10000 | CSCc1sc(N(CCC(=O)O)Cc2ccccc2)nc1-c1ccc(Cl)c(Cl)c1 [I-121]
> 10000 | CC(C)Cc1sc(N(CCC(=O)O)Cc2cccc(C(=O)NCCN)c2)nc1-c1ccc(Cl)c(Cl)c1 [I-205, 3-((3-(2-aminoethylcarbamoyl)benzyl)(4-(3,4-dichlorophenyl)-5-isobutylthiazol-2-yl)amino)propanoic acid]
≤ 1000 | CC(C)Cc1sc(Nc2ccc(F)c(C(=O)O)c2)nc1-c1ccc(Cl)c(Cl)c1 [I-209]
≤ 1000 | CC(C)c1sc(Nc2ncc(C(F)(F)F)cc2C(=O)O)nc1-c1ccc(Cl)cc1Cl [I-323, 2-(4-(2,4-dichlorophenyl)-5-isopropylthiazol-2-ylamino)-5-(trifluoromethyl)nicotinic acid]
≤ 1000 | O=C(O)C(CNc1nc(-c2ccc(Cl)c(Cl)c2)c(C2CCCC2)s1)Cc1ccccc1 (stereo not drawn) [I-177]
≤ 1000 | CC(C)c1sc(Nc2ncc(-c3cccs3)cc2C(=O)O)nc1-c1ccc(Cl)c(Cl)c1 [I-260]

Source: patent US11753403B2, “EIF4E inhibitors and uses thereof” (PIC Therapeutics, Inc., priority 2020, dated 2023)
